Measurements reported in paper PMC10882719 (Frontiers in Neuroscience, 2024).

How the values were obtained:
[1] = molecular target: T1, 5HT reuptake (SERT), rat brain synaptosomes (Rattus norvegicus, UniProt P31652); assay: Uptake inhibition assay, [3H]5-HT, rat brain synaptosomes; assay type: biochemical
T1 construct: Rat brain synaptosomes were isolated from Sprague Dawley rats (200-250 g); from tissue; host or cells: rat brain synaptosomes (Sprague Dawley)

[2] = molecular target: T2, 5HT release (SERT), rat brain synaptosomes (Rattus norvegicus, UniProt P31652); assay: Release assay, [3H]5-HT, superfused rat brain synaptosomes; assay type: biochemical
T2 construct: Rat brain synaptosomes were isolated from Sprague Dawley rats (200-250 g); from tissue; host or cells: rat brain synaptosomes (Sprague Dawley)
Procedure: (§1) Test compounds and synaptosomes were prepared as described for uptake inhibition assays. Synaptosomes treated with [^3H] 5-HT, [^3H] DA or [^3H] NE were loaded onto filter chambers containing GF/C filters and placed in a superfusion system. Oxygenated Krebs buffer was perfused through the chambers at a rate of 1.5 mL/min at 35°C using either an 8-channel or a 12-channel peristaltic pump. Trapped air bubbles were removed from the filters prior to collecting fractions to ensure an even flow over the synaptosomal bed. After a superfusion period of 45 min, 2 basal fractions were collected followed by 6 fractions following the addition of the test drug. […] After the addition of scintillation cocktail, radioactivity was counted using a Wallac® TriLux 1,450 MicroBeta counter. […] Scintillation cocktail was added, and the filters counted to determine residual radioactivity. Drug-evoked release of neurotransmitter was calculated by subtracting the average of the two basal fractions (collected prior to the drug addition), from the four fractions collected in the presence of drug. The drug-evoked release was then expressed as a percentage of the basal release. Potassium-evoked release was calculated by subtracting the average of two fractions collected prior to the addition of high KCl buffer from that in the two fractions following addition of high KCl buffer. […]

[3] = tested on: immobility in the forced swim test; set-up: method as in Warner-Schmidt et al., 2022; details: rats, ref Warner-Schmidt et al., 2022, cited from earlier work
PTSD patients (CAPS-5) = details: open-label, 14 PTSD patients; ref Jones et al., 2023; cited from earlier work
[4] = molecular target: T3, NE release (NET), rat brain synaptosomes (Rattus norvegicus, UniProt Q63380); assay: Release assay, [3H]NE, superfused rat brain synaptosomes; assay type: biochemical
T3 construct: Rat brain synaptosomes were isolated from Sprague Dawley rats (200-250 g); from tissue; host or cells: rat brain synaptosomes (Sprague Dawley)
Procedure: as §1

[5] = molecular target: T4, NE uptake (NET), rat brain synaptosomes (Rattus norvegicus, UniProt Q63380); assay: Uptake inhibition assay, [3H]NE, rat brain synaptosomes; assay type: biochemical
T4 construct: Rat brain synaptosomes were isolated from Sprague Dawley rats (200-250 g); from tissue; host or cells: rat brain synaptosomes (Sprague Dawley)

[6] = molecular target: T5, DA release (DAT), rat brain synaptosomes (Rattus norvegicus, UniProt P23977); assay: Release assay, [3H]DA, superfused rat brain synaptosomes; assay type: biochemical
T5 construct: Rat brain synaptosomes were isolated from Sprague Dawley rats (200-250 g); from tissue; host or cells: rat brain synaptosomes (Sprague Dawley)
Procedure: as §1

[7] = molecular target: T6, DA uptake (DAT), rat brain synaptosomes (Rattus norvegicus, UniProt P23977); assay: Uptake inhibition assay, [3H]DA, rat brain synaptosomes; assay type: biochemical
T6 construct: Rat brain synaptosomes were isolated from Sprague Dawley rats (200-250 g); from tissue; host or cells: rat brain synaptosomes (Sprague Dawley)
T6 sequence (P23977 whole entry): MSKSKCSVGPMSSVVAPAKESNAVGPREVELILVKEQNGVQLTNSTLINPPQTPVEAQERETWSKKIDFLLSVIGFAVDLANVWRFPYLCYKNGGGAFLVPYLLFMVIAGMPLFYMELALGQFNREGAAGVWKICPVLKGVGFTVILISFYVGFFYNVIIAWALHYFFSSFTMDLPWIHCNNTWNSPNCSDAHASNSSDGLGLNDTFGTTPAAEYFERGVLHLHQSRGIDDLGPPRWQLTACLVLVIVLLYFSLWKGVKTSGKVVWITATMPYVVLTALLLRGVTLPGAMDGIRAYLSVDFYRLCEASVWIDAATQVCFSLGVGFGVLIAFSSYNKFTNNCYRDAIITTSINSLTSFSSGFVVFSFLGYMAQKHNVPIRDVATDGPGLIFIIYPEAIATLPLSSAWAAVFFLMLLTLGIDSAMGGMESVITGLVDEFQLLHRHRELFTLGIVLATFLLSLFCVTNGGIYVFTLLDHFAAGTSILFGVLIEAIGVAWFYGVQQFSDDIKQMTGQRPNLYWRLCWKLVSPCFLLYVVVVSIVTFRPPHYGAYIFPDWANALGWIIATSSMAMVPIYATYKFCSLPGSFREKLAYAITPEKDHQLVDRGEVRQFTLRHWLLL

T5 sequence (P23977 whole entry, the tested form may be a part): as the sequence (P23977 whole entry) above
T3 sequence (Q63380 1-617): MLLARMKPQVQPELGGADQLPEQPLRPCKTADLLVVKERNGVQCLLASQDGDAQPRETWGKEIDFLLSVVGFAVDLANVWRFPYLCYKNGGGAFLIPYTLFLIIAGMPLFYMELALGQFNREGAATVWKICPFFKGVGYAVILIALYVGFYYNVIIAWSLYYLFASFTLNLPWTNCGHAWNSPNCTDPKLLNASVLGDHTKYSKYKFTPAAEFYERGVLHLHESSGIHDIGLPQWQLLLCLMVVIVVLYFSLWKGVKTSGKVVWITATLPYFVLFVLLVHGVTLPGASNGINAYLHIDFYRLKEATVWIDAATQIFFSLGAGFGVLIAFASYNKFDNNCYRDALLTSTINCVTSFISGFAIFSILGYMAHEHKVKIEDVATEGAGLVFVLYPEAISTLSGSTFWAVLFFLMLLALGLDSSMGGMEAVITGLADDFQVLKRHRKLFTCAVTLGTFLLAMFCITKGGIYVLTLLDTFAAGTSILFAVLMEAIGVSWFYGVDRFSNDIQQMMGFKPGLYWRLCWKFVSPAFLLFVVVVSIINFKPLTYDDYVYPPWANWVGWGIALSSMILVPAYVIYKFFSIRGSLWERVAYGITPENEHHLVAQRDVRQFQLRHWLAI
T4 sequence (Q63380 1-617): as above
T1 sequence (P31652 whole entry): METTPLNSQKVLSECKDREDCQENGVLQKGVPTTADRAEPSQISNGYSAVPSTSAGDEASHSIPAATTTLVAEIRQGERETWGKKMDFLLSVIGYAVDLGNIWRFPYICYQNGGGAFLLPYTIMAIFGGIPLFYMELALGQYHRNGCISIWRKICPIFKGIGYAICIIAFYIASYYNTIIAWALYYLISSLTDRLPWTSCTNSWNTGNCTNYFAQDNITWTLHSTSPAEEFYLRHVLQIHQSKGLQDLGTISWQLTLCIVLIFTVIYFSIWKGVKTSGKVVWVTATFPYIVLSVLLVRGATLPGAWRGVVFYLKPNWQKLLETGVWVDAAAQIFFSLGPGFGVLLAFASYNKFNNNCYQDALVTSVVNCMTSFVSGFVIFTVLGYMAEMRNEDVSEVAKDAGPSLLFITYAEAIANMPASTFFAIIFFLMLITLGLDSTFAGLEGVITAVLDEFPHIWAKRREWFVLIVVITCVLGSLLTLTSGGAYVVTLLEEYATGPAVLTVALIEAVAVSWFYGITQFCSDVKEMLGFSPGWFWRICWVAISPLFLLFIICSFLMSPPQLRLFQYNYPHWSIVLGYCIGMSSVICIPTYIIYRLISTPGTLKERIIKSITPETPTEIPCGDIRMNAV
T2 sequence (P31652 whole entry, the tested form may be a part): as the sequence (P31652 whole entry) above

Q: For `CNC(C)C(=O)c1ccc2c(c1)OCO2` (centres unmarked) [methylone], which IC50 [1] is on record?
A: 430 nM

Q: What about the EC50 [2] of the same compound?
A: 620 nM

Q: And the “Reduction in immobility in the forced swim test” value ([3]; 30 min after a single human equivalent dose of 100–150 mg)?
A: 95–98%

Q: What about the “Duration of reduction in immobility post-dose” value ([3]; single dose) of the same compound?
A: at least 72 h

Q: And the Adverse events (PTSD patients (CAPS-5))?
A: no significant adverse events

Q: What about the “Reduction in CAPS-5” value (PTSD patients (CAPS-5)) of the same compound?
A: 36.2 point

Q: And the EC50 [4]?
A: 330 nM

Q: What about the IC50 [5] of the same compound?
A: 130 nM

Q: And the EC50 [6]?
A: 4790 nM

Q: What about the “Amount of DA released compared to MDMA” value ([6]; rat brain synaptosomes, Figure 1C) of the same compound?
A: Less DA was released

Q: And the IC50 [7]?
A: 2300 nM
